# Columns and labels:
# Ratten = assay: Mean arterial blood pressure in pentobarbital-anaesthetised rats, 10 min i.v. infusion as lipid emulsion; type: in vivo; settings: mean arterial pressure in % of baseline, mean of 4 rats
# Procedure: So wurde an durch intraperitoneale Injektion von 60 mg/kg Natriumpentobarbital narkotisierten Ratten über einen Carotis-Katheter mit Hilfe eines Druckübermittlers der Blutdruck überwacht. Den Tieren (in Gruppen von je 4 Tieren) wurden dann für jeweils 10 Minuten über einen in die rechte vena femoralis eingesetzten Katheter • 1) 10,0 µg/kg/min der Verbindung A (R₁ = H) • 2) 9,6 µg/kg/min der Verbindung B (R₁ = H) • 3) 6,2 µg/kg/min des Esters der Formel I (X = 0) bzw. • 4) 10,5 µg/kg/min des Esters der Formel I (X = CH₂) injiziert, wobei diese Verbindungen in Form einer Lipidemulsion (vgl. Mizushima et al. J. Pharm. Pharmacol. 34 (1982) 49 - 50 und Ann. Rheum. Dis. 41 (1982) 263 - 267) zur Anwendung kamen. Dabei ergaben sich fol gende Werte des mittleren arteriellen Blutdrucks (in % des Ausgangswertes; jeweils als Mittelwert für die Tiere einer Gruppe): […]
# [1] = tested on: ADP-induzierten Thrombozytenaggregation; assay: ADP-induced platelet aggregation (platelet count fall) in the urethane-anaesthetised rat after oral dosing; type: in vivo, Ratte; settings: 100 µg/kg ADP i.v. bolus
# Procedure: Zur Bestimmung der ADP-induzierten Thrombozytenaggregation an der Urethan-narkotisierten Ratte nach oraler Gabe der Vergleichssubstanzen wurde den Tieren ein Carotis-Katheter eingesetzt und über diesen kontinuierlich Blut entnommen. Nach Zumischen von Natriumzitrat wurde in einem Technicon-Thrombocounter die Thrombozytenzahl bestimmt. 15 Minuten und unmittelbar vor der Gabe der Prüfsubstanz sowie 15, 30, 45 und 60 min. nach der Prüfsubstanzgabe wurden über die vena jugularis jeweils 100 µg/kg ADP als Bolus injiziert und der Thrombozytenabfall unter der ADP-Injektion bestimmt. Der Mittelwert der beiden Werte vor der Prüfsubstanzgabe wurde als Ausgangs-Kontrollwert genommen und die Werte nach Prüfsubstanzgabe als %-Änderung gegenüber diesem Wert bestimmt.
# [2] = tested on: menschlichen Blutplättchen; settings: aggregation induced by various agents; compared with natural Prostacyclin; cited from earlier work
# [3] = tested on: durch ADP induzierten Blutplättchenaggregation; settings: rat plasma; in % of the effect of the free acid; cited from earlier work
# Hunden = settings: dogs; potency in % of the free acid; cited from earlier work
# [4] = 15 min after oral dose of 10 mg/kg
# [5] = 30 min after oral dose of 10 mg/kg
# [6] = 45 min after oral dose of 10 mg/kg
# [7] = 60 min after oral dose of 10 mg/kg
smiles,measurement,setting,value
"O=C(O)c1cccc(/C=C2/C[C@@H]3[C@@H](/C=C/[C@@H](O)C4CCCCC4)[C@H](O)C[C@@H]3O2)c1 (relative stereo) [A (R₁ = H), 2-Oxa-3Z-(m-carboxybenzyliden)-6β-(3′-S-hydroxy-3′cyclohexyl-1′E-propenyl)-7α-hydroxy-cis-bicyclo[3.3.0] octan, reference compound]",Relativer Blutdruck (%) Minuten nach Injektionsbeginn,"Ratten; 5 min, 10,0 µg/kg/min i.v. for 10 min",64%
same,Relativer Blutdruck (%) Minuten nach Injektionsbeginn,"Ratten; 10 min, 10,0 µg/kg/min i.v. for 10 min",65%
same,Relativer Blutdruck (%) Minuten nach Injektionsbeginn,"Ratten; 20 min, 10,0 µg/kg/min i.v. for 10 min",94%
"O=C(O)c1cccc(/C=C2\C[C@H]3C[C@@H](O)[C@H](/C=C/[C@@H](O)C4CCCCC4)[C@H]3C2)c1 (relative stereo) [B(R₁=H), 3E-(m-Carboxybenzyliden)-6β-(3′S-hydroxy-3′-cyclohexyl-1′E-propenyl)-7α-hydroxy-cis-bicyclo-[3.3.0]octan, reference compound]",Thrombozytenaggregationshemmung in % des Ausgangskontrollwertes nach Minuten,[1]; [4],"68,9±6,8%"
same,Thrombozytenaggregationshemmung in % des Ausgangskontrollwertes nach Minuten,[1]; [5],"55,1±6,7%"
same,Thrombozytenaggregationshemmung in % des Ausgangskontrollwertes nach Minuten,[1]; [6],"51,8±6,4%"
same,Thrombozytenaggregationshemmung in % des Ausgangskontrollwertes nach Minuten,[1]; [7],"38,1±6,3%"
same,Relativer Blutdruck (%) Minuten nach Injektionsbeginn,"Ratten; 5 min, 9,6 µg/kg/min i.v. for 10 min",80%
same,Relativer Blutdruck (%) Minuten nach Injektionsbeginn,"Ratten; 10 min, 9,6 µg/kg/min i.v. for 10 min",84%
same,Relativer Blutdruck (%) Minuten nach Injektionsbeginn,"Ratten; 20 min, 9,6 µg/kg/min i.v. for 10 min",105%
"CCCCCC(O)C#CC1C(O)CC2OC(=CCCCC(=O)OC)CC21 (stereo not drawn) [13,14-Dehydroprostacyclinmethylester]",Aggregationshemmung von menschlichen Blutplättchen,[2],ähnlich wirksam
"CC(C)(C)C(=O)OCOC(=O)c1cccc(/C=C2/C[C@@H]3[C@@H](/C=C/[C@@H](O)C4CCCCC4)[C@H](O)C[C@@H]3O2)c1 [I (X = 0), 2-Oxa-3Z-(m-pivaloyloxymethyloxycarbonyl-benzyliden)-6β-(3′S-hydroxy-3′-cyclohexyl-1′E-propenyl)-7α-hydroxy-cis-bicyclo[3.3.0]octan]",Relativer Blutdruck (%) Minuten nach Injektionsbeginn,"Ratten; 5 min, 6,2 µg/kg/min i.v. for 10 min",58%
same,Relativer Blutdruck (%) Minuten nach Injektionsbeginn,"Ratten; 10 min, 6,2 µg/kg/min i.v. for 10 min",62%
same,Relativer Blutdruck (%) Minuten nach Injektionsbeginn,"Ratten; 20 min, 6,2 µg/kg/min i.v. for 10 min",81%
"CC(C)(C)C(=O)OCOC(=O)c1cccc(/C=C2\C[C@H]3C[C@@H](O)[C@H](/C=C/[C@@H](O)C4CCCCC4)[C@H]3C2)c1 [I(X=CH₂), 3E-(m-Pivaloyloxymethyloxycarbonyl-benzyliden)-6β-(3′S-hydroxy-3′-cyclohexyl-1′E-propenyl)-7α hydroxy-cis-bicyclo[3.3.0]octan]",Thrombozytenaggregationshemmung in % des Ausgangskontrollwertes nach Minuten,[1]; [4],"24,0±3,0%"
same,Thrombozytenaggregationshemmung in % des Ausgangskontrollwertes nach Minuten,[1]; 15 min after oral dose of 100 mg/kg,"59,4±3,0%"
same,Thrombozytenaggregationshemmung in % des Ausgangskontrollwertes nach Minuten,[1]; [5],"28,1±3,8%"
same,Thrombozytenaggregationshemmung in % des Ausgangskontrollwertes nach Minuten,[1]; 30 min after oral dose of 100 mg/kg,"63,3±6,8%"
same,Thrombozytenaggregationshemmung in % des Ausgangskontrollwertes nach Minuten,[1]; [6],"29,1±3,9%"
same,Thrombozytenaggregationshemmung in % des Ausgangskontrollwertes nach Minuten,[1]; 45 min after oral dose of 100 mg/kg,"68,1±2,0%"
same,Thrombozytenaggregationshemmung in % des Ausgangskontrollwertes nach Minuten,[1]; [7],"30,3±4,6%"
same,Thrombozytenaggregationshemmung in % des Ausgangskontrollwertes nach Minuten,[1]; 60 min after oral dose of 100 mg/kg,"71,0±4,4%"
same,Relativer Blutdruck (%) Minuten nach Injektionsbeginn,"Ratten; 5 min, 10,5 µg/kg/min i.v. for 10 min",62%
same,Relativer Blutdruck (%) Minuten nach Injektionsbeginn,"Ratten; 10 min, 10,5 µg/kg/min i.v. for 10 min",51%
same,Relativer Blutdruck (%) Minuten nach Injektionsbeginn,"Ratten; 20 min, 10,5 µg/kg/min i.v. for 10 min",69%
"CCCCCC(O)/C=C/C1C(O)CC2CC(=CCCCC(=O)OC)CC21 (stereo not drawn) [Methylester der (5EZ,13E)(9α,11α,15α)-6,9-methano-11,15-dihydroxyprosta-5,13-diensäure]","Hemmung der durch ADP induzierten Blutplättchenaggregation, Wirkung relativ zur freien Säure",[3],~80%
same,"Wirkung auf den Blutdruck, relativ zur freien Säure",Hunden,50 - 60%
